Laboratory results taken from US10835533B2, “1 -((3S,4R)-4-(3-fluorophenyl)-1-(2-methoxyethyl)pyrrolidin-3-yl)-3-(4-methyl-3-(2-methylpyrimidin-5-yl)-1-phenyl-1H-pyrazol-5-yl)urea as a TrkA kinase inhibitor” (Array BioPharma Inc., priority 2014, dated 2020).

How the values were obtained:
[1] = target: T1, GST-tagged recombinant human p38α (Homo sapiens, UniProt Q16539); test: p38α LanthaScreen Eu Kinase Binding Assay (Example G); conditions: TrkA versus p38α binding
T1 construct: GST-tagged cytoplasmic domain from Invitrogen, Catalog No. PV3305; purchased Invitrogen PV3305
Experimental: The p38α binding activity of Compound 1 was determined in a p38α LanthaScreen™ Eu Kinase Binding Assay. […] Three fold serial dilutions of Compound 1 in DMSO were added to a final percentage of 2% DMSO. After 60-minute incubation at 22° C., the reaction was measured using the EnVision multimode plate reader (PerkinElmer) via TR-FRET dual wavelength detection at […]. The percent of control was calculated using a ratiometric emission factor. The IC50 value was determined by fitting a four parameter model to the percent of control data.

Abl-P = target: T2, Abl-P (Homo sapiens, UniProt P00519); test: KinaseProfiler kinase profiling; type: biochemical; conditions: 10 μM, ATP near Km
T2 construct: purchased Millipore, Inc. (KinaseProfiler service)
Method in brief: (§1)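 Each kinase reaction contained ATP approximating its own Km plus 10 μM test compound. Duplicates were run, and the mean percent-of-control value is listed.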

Axl = target: T3, Axl (Homo sapiens, UniProt P30530); test: KinaseProfiler kinase profiling; type: biochemical; conditions: 10 μM, ATP near Km
T3 construct: purchased Millipore, Inc. (KinaseProfiler service)
Method in brief: as §1

CAMK2b = target: T4, CAMK2b (Homo sapiens, UniProt Q13554); test: KinaseProfiler kinase profiling; type: biochemical; conditions: 10 μM, ATP near Km
T4 construct: purchased Millipore, Inc. (KinaseProfiler service)
Method in brief: as §1

CAMK2d = target: T5, CAMK2d (Homo sapiens, UniProt Q13557); test: KinaseProfiler kinase profiling; type: biochemical; conditions: 10 μM, ATP near Km
T5 construct: purchased Millipore, Inc. (KinaseProfiler service)
Method in brief: as §1

CDK2/cyclinA = target: T6, CDK2/cyclinA (Homo sapiens, UniProt P24941); test: KinaseProfiler kinase profiling; type: biochemical; conditions: 10 μM, ATP near Km
T6 construct: purchased Millipore, Inc. (KinaseProfiler service)
Method in brief: as §1

CDK6/cyclinD3 = target: T7, CDK6/cyclinD3 (Homo sapiens, UniProt Q00534); test: KinaseProfiler kinase profiling; type: biochemical; conditions: 10 μM, ATP near Km
T7 construct: purchased Millipore, Inc. (KinaseProfiler service)
Method in brief: as §1

CDK7/cyclinH/MAT1 = target: T8, CDK7/cyclinH/MAT1 (Homo sapiens, UniProt P50613); test: KinaseProfiler kinase profiling; type: biochemical; conditions: 10 μM, ATP near Km
T8 construct: purchased Millipore, Inc. (KinaseProfiler service)
Method in brief: as §1

CDK9/cyclinT1 = target: T9, CDK9/cyclinT1 (Homo sapiens, UniProt P50750); test: KinaseProfiler kinase profiling; type: biochemical; conditions: 10 μM, ATP near Km
T9 construct: purchased Millipore, Inc. (KinaseProfiler service)
Method in brief: as §1

CHK1 = target: T10, CHK1 (Homo sapiens, UniProt O14757); test: KinaseProfiler kinase profiling; type: biochemical; conditions: 10 μM, ATP near Km
T10 construct: purchased Millipore, Inc. (KinaseProfiler service)
Method in brief: as §1

CLK2 = target: T11, CLK2 (Homo sapiens, UniProt P49760); test: KinaseProfiler kinase profiling; type: biochemical; conditions: 10 μM, ATP near Km
T11 construct: purchased Millipore, Inc. (KinaseProfiler service)
Method in brief: as §1

ERK1 = target: T12, ERK1 (Homo sapiens, UniProt P27361); test: KinaseProfiler kinase profiling; type: biochemical; conditions: 10 μM, ATP near Km
T12 construct: purchased Millipore, Inc. (KinaseProfiler service)
Method in brief: as §1

EphA8 = target: T13, EphA8 (Homo sapiens, UniProt P29322); test: KinaseProfiler kinase profiling; type: biochemical; conditions: 10 μM, ATP near Km
T13 construct: purchased Millipore, Inc. (KinaseProfiler service)
Method in brief: as §1

FGFR1 = target: T14, FGFR1 (Homo sapiens, UniProt P11362); test: KinaseProfiler kinase profiling; type: biochemical; conditions: 10 μM, ATP near Km
T14 construct: purchased Millipore, Inc. (KinaseProfiler service)
Method in brief: as §1

FGFR2 = target: T15, FGFR2 (Homo sapiens, UniProt P21802); test: KinaseProfiler kinase profiling; type: biochemical; conditions: 10 μM, ATP near Km
T15 construct: purchased Millipore, Inc. (KinaseProfiler service)
Method in brief: as §1

FGFR3 = target: T16, FGFR3 (Homo sapiens, UniProt P22607); test: KinaseProfiler kinase profiling; type: biochemical; conditions: 10 μM, ATP near Km
T16 construct: purchased Millipore, Inc. (KinaseProfiler service)
Method in brief: as §1

GRK6 = target: T17, GRK6 (Homo sapiens, UniProt P43250); test: KinaseProfiler kinase profiling; type: biochemical; conditions: 10 μM, ATP near Km
T17 construct: purchased Millipore, Inc. (KinaseProfiler service)
Method in brief: as §1

IRR = target: T18, IRR (Homo sapiens, UniProt P14616); test: KinaseProfiler kinase profiling; type: biochemical; conditions: 10 μM, ATP near Km
T18 construct: purchased Millipore, Inc. (KinaseProfiler service)
Method in brief: as §1

ITK = target: T19, ITK (Homo sapiens, UniProt Q08881); test: KinaseProfiler kinase profiling; type: biochemical; conditions: 10 μM, ATP near Km
T19 construct: purchased Millipore, Inc. (KinaseProfiler service)
Method in brief: as §1

KIT = target: T20, KIT (Homo sapiens, UniProt P10721); test: KinaseProfiler kinase profiling; type: biochemical; conditions: 10 μM, ATP near Km
T20 construct: purchased Millipore, Inc. (KinaseProfiler service)
Method in brief: as §1

Lyn = target: T21, Lyn (Homo sapiens, UniProt P07948); test: KinaseProfiler kinase profiling; type: biochemical; conditions: 10 μM, ATP near Km
T21 construct: purchased Millipore, Inc. (KinaseProfiler service)
Method in brief: as §1

NEK11 = target: T22, NEK11 (Homo sapiens, UniProt Q8NG66); test: KinaseProfiler kinase profiling; type: biochemical; conditions: 10 μM, ATP near Km
T22 construct: purchased Millipore, Inc. (KinaseProfiler service)
Method in brief: as §1

NLK = target: T23, NLK (Homo sapiens, UniProt Q9UBE8); test: KinaseProfiler kinase profiling; type: biochemical; conditions: 10 μM, ATP near Km
T23 construct: purchased Millipore, Inc. (KinaseProfiler service)
Method in brief: as §1

PKCbetaII = target: T24, PKCbetaII (Homo sapiens, UniProt P05771); test: KinaseProfiler kinase profiling; type: biochemical; conditions: 10 μM, ATP near Km
T24 construct: purchased Millipore, Inc. (KinaseProfiler service)
Method in brief: as §1

PKCepsilon = target: T25, PKCepsilon (Homo sapiens, UniProt Q02156); test: KinaseProfiler kinase profiling; type: biochemical; conditions: 10 μM, ATP near Km
T25 construct: purchased Millipore, Inc. (KinaseProfiler service)
Method in brief: as §1

Pim-1 = target: T26, Pim-1 (Homo sapiens, UniProt P11309); test: KinaseProfiler kinase profiling; type: biochemical; conditions: 10 μM, ATP near Km
T26 construct: purchased Millipore, Inc. (KinaseProfiler service)
Method in brief: as §1

Rsk2 = target: T27, Rsk2 (Homo sapiens, UniProt P51812); test: KinaseProfiler kinase profiling; type: biochemical; conditions: 10 μM, ATP near Km
T27 construct: purchased Millipore, Inc. (KinaseProfiler service)
Method in brief: as §1

SGK3 = target: T28, SGK3 (Homo sapiens, UniProt Q96BR1); test: KinaseProfiler kinase profiling; type: biochemical; conditions: 10 μM, ATP near Km
T28 construct: purchased Millipore, Inc. (KinaseProfiler service)
Method in brief: as §1

SRPK2 = target: T29, SRPK2 (Homo sapiens, UniProt P78362); test: KinaseProfiler kinase profiling; type: biochemical; conditions: 10 μM, ATP near Km
T29 construct: purchased Millipore, Inc. (KinaseProfiler service)
Method in brief: as §1

TAO3 = target: T30, TAO3 (Homo sapiens, UniProt Q9H2K8); test: KinaseProfiler kinase profiling; type: biochemical; conditions: 10 μM, ATP near Km
T30 construct: purchased Millipore, Inc. (KinaseProfiler service)
Method in brief: as §1

TSSK2 = target: T31, TSSK2 (Homo sapiens, UniProt Q96PF2); test: KinaseProfiler kinase profiling; type: biochemical; conditions: 10 μM, ATP near Km
T31 construct: purchased Millipore, Inc. (KinaseProfiler service)
Method in brief: as §1

Tie2 = target: T32, Tie2 (Homo sapiens, UniProt Q02763); test: KinaseProfiler kinase profiling; type: biochemical; conditions: 10 μM, ATP near Km
T32 construct: purchased Millipore, Inc. (KinaseProfiler service)
Method in brief: as §1

TrkB = target: T33, TrkB (Homo sapiens, UniProt Q16620); test: KinaseProfiler kinase profiling; type: biochemical; conditions: 10 μM, ATP near Km
T33 construct: purchased Millipore, Inc. (KinaseProfiler service)
Method in brief: as §1

WNK3 = target: T34, WNK3 (Homo sapiens, UniProt Q9BYP7); test: KinaseProfiler kinase profiling; type: biochemical; conditions: 10 μM, ATP near Km
T34 construct: purchased Millipore, Inc. (KinaseProfiler service)
Method in brief: as §1

mTOR = target: T35, mTOR (Homo sapiens, UniProt P42345); test: KinaseProfiler kinase profiling; type: biochemical; conditions: 10 μM, ATP near Km
T35 construct: purchased Millipore, Inc. (KinaseProfiler service)
Method in brief: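 Single test compound screened at 10 μM against each kinase, with ATP near the Km of that kinase. Run in duplicate. Activity is given as percent of control, the mean of both replicates.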

p38alpha = target: T36, p38alpha (Homo sapiens, UniProt Q16539); test: KinaseProfiler kinase profiling; type: biochemical; conditions: 10 μM, ATP near Km
T36 construct: purchased Millipore, Inc. (KinaseProfiler service)
Method in brief: as §1

T19 sequence (Q08881 whole entry): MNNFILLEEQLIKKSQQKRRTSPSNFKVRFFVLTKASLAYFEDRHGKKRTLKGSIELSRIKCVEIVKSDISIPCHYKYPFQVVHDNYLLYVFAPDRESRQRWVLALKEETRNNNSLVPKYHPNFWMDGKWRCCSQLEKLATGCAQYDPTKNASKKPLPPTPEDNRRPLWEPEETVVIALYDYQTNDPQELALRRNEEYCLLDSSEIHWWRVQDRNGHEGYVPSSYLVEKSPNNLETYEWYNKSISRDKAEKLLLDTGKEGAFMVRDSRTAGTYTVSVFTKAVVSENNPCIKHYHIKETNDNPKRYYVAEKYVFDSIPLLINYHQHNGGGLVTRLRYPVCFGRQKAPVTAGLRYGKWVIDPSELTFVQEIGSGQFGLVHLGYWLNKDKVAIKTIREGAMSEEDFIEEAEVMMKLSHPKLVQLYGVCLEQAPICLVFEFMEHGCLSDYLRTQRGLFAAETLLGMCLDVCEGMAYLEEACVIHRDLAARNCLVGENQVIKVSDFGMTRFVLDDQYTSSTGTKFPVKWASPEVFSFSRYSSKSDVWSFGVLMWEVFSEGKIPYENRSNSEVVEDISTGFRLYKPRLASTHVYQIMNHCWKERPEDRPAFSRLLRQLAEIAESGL
T17 sequence (P43250 whole entry): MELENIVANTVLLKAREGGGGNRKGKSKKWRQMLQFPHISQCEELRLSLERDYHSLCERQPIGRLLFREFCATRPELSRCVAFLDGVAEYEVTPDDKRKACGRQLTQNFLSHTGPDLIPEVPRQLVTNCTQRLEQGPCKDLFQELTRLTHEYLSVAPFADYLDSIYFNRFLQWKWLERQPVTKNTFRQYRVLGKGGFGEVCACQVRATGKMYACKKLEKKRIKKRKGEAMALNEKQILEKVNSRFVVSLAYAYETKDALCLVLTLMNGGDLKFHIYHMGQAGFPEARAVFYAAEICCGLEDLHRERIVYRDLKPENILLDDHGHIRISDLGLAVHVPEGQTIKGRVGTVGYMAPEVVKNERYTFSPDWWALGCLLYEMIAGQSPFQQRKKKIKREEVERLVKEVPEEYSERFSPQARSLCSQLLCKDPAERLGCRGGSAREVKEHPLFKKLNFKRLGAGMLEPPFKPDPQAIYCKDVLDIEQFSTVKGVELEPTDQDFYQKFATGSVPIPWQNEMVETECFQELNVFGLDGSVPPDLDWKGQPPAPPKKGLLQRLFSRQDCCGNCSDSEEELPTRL
T10 sequence (O14757 whole entry): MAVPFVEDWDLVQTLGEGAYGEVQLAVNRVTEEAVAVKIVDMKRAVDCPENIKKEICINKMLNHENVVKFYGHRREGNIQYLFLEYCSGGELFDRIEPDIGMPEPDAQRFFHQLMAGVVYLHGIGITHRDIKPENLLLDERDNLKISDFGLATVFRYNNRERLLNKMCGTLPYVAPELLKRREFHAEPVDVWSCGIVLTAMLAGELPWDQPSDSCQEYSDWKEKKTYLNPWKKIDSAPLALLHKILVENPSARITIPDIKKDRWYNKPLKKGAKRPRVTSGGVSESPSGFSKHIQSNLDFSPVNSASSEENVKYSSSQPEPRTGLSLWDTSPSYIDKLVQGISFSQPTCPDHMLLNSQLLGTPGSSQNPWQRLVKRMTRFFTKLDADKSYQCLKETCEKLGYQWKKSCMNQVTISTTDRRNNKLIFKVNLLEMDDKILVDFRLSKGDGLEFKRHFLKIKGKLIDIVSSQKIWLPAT
T28 sequence (Q96BR1 whole entry): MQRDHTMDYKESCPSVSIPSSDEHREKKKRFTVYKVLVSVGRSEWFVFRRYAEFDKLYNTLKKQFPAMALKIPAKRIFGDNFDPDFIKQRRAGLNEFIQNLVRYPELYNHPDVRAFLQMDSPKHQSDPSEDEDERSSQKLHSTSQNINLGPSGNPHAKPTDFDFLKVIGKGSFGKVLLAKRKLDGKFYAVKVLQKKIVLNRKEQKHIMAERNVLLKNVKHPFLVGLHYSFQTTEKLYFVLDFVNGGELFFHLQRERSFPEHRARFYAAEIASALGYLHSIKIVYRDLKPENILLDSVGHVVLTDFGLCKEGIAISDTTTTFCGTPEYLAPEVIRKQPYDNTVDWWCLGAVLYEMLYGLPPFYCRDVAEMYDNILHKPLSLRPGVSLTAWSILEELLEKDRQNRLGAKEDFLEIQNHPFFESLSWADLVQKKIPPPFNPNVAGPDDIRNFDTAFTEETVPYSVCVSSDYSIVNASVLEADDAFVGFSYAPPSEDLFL
T12 sequence (P27361 whole entry): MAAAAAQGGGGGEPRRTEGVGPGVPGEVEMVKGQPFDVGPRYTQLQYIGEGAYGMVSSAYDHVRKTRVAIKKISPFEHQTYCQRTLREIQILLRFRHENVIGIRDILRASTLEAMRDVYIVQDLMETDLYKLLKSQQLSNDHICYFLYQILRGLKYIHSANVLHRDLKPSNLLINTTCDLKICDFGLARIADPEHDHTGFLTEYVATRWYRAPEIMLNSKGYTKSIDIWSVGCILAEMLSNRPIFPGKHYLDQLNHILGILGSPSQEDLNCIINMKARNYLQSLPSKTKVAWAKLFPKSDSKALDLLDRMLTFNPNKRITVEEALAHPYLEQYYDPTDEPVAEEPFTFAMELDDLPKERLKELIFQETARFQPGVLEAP
T26 sequence (P11309 whole entry): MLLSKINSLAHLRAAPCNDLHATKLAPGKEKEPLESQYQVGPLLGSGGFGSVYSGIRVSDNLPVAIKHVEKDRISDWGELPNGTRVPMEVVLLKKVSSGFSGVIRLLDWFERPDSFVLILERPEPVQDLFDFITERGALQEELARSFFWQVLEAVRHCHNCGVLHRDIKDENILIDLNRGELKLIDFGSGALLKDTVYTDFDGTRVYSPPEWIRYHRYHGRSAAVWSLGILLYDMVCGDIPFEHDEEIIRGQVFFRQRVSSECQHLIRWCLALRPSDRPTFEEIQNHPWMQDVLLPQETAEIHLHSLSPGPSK
T25 sequence (Q02156 whole entry): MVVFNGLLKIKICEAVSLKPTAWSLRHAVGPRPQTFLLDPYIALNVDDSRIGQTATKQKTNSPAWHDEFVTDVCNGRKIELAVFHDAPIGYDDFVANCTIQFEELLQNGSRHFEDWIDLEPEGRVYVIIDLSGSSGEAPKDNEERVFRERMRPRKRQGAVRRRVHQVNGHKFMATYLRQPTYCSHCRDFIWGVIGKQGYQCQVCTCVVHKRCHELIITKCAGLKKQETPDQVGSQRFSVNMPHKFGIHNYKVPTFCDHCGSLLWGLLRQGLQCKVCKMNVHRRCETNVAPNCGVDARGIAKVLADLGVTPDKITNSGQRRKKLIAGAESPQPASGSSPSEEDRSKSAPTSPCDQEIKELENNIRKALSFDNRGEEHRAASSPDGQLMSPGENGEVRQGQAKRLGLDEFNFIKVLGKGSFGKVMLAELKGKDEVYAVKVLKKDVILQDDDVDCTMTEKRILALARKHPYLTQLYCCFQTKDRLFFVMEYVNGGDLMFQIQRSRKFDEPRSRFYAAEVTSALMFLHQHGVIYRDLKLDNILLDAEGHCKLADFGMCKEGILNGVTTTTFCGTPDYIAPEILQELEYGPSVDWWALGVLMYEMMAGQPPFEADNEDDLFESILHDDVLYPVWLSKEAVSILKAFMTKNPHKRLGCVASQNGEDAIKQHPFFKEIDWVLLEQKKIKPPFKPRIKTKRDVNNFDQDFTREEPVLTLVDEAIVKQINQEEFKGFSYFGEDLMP
T8 sequence (P50613 whole entry): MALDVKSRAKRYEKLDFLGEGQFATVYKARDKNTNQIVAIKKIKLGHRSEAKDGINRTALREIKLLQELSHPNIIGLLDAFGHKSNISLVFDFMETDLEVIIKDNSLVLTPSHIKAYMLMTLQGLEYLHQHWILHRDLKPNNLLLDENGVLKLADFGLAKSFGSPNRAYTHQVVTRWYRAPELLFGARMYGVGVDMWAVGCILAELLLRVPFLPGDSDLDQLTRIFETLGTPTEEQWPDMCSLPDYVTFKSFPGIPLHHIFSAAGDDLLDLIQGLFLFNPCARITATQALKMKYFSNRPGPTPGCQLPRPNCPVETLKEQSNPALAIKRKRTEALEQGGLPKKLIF
T8 sequence (P51946 whole entry partner): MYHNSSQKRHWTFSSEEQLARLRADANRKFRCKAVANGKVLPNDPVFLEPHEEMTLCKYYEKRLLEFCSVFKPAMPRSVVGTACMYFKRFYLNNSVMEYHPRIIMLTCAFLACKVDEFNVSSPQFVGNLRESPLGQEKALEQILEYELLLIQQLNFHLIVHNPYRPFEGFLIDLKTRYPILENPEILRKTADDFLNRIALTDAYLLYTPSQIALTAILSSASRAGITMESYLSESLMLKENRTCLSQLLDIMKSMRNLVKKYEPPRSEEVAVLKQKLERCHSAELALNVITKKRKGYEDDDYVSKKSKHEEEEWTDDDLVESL
T8 sequence (P51948 whole entry partner): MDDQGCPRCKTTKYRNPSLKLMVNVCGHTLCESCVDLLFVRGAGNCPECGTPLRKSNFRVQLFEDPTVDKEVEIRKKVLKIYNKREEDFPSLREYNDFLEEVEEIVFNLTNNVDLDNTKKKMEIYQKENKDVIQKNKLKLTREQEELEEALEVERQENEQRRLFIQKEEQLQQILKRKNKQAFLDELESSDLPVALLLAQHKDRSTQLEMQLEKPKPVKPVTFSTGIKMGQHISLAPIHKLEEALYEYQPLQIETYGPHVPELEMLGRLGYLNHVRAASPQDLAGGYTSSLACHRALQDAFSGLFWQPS
T31 sequence (Q96PF2 whole entry): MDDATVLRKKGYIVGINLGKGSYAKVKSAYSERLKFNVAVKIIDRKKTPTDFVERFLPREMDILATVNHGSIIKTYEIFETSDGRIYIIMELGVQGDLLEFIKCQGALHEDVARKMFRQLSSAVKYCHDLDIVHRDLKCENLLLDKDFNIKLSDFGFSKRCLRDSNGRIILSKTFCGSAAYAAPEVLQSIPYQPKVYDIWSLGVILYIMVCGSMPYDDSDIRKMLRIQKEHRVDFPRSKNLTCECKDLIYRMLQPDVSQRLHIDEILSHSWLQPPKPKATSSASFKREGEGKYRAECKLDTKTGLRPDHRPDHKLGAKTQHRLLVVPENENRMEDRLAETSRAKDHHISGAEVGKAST

COCCN1C[C@@H](NC(=O)Nc2c(C)c(-c3cnc(C)nc3)nn2-c2ccccc2)[C@H](c2cccc(F)c2)C1 [Compound 1, 1-((3S,4R)-4-(3-fluorophenyl)-1-(2-methoxyethyl)pyrrolidin-3-yl)-3-(4-methyl-3-(2-methylpyrimidin-5-yl)-1-phenyl-1H-pyrazol-5-yl)urea]
fold more potent against TrkA than p38α [1]: 1000 fold
Avg POC (Abl-P): 110.5 POC
Avg POC (Axl): 115.5 POC
Avg POC (CAMK2b): 147.5 POC
Avg POC (CAMK2d): 97.5 POC
Avg POC (CDK2/cyclinA): 94.5 POC
Avg POC (CDK6/cyclinD3): 99.5 POC
Avg POC (CDK7/cyclinH/MAT1): 99 POC
Avg POC (CDK9/cyclinT1): 112 POC
Avg POC (CHK1): 109 POC
Avg POC (CLK2): 102 POC
Avg POC (ERK1): 94.5 POC
Avg POC (EphA8): 110 POC
Avg POC (FGFR1): 117 POC
Avg POC (FGFR2): 99 POC
Avg POC (FGFR3): 108 POC
Avg POC (GRK6): 98 POC
Avg POC (IRR): 104.5 POC
Avg POC (ITK): 104 POC
Avg POC (KIT): 97.5 POC
Avg POC (Lyn): 104.5 POC
Avg POC (NEK11): 94 POC
Avg POC (NLK): 94.5 POC
Avg POC (PKCbetaII): 99.5 POC
Avg POC (PKCepsilon): 101.5 POC
Avg POC (Pim-1): 103.5 POC
Avg POC (Rsk2): 93 POC
Avg POC (SGK3): 112.5 POC
Avg POC (SRPK2): 96.5 POC
Avg POC (TAO3): 103 POC
Avg POC (TSSK2): 108.5 POC
Avg POC (Tie2): 82 POC
Avg POC (TrkB): 1.5 POC
Avg POC (WNK3): 115.5 POC
Avg POC (mTOR): 97.5 POC
Avg POC (p38alpha): 107.5 POC
